Data from patent US20220193081A1 (Ellamed IP & Services PTE. LTD., priority 2019, published 2022).
Read-outs that look alike come from different tables or passages of the source.

Assay type: physicochemical
Method: 840 mg of sildenafil base (Carbosynth) was introduced into 40 ml of 50% aqueous ethanol at an unadjusted pH of 7.7. […] Finally, the pH of the mixture was further lowered to a pH of approximately 4 by the introduction of additional 1M HCl upon which the mixture began to solubilize.
840 mg of sildenafil base (Carbosynth), together with 840 mg of sucralose was introduced into 40 ml of 50% aqueous ethanol at an unadjusted pH of 7.7. […] The pH of the mixture was further lowered to a pH of approximately 4.6 by the introduction of additional 1M HCl upon which the mixture began to solubilize. Additional 1M HCl was added to the mixture until it completely solubilized at a pH of 3.83.
945 mg of sildenafil base (Carbosynth), together with 945 mg of sucralose was introduced into 45 ml of 50% aqueous ethanol at an unadjusted pH of 7.7. […] The pH of the mixture was then lowered to by the stepwise introduction of 1M HCl during stirring until the mixture was fully solubilized at pH 4.92.

For CCCc1nn(C)c2c(=O)[nH]c(-c3cc(S(=O)(=O)N4CCN(C)CC4)ccc3OCC)nc12 [sildenafil base], the “pH at which the mixture completely solubilized” value was 3.83, the “pH at which the mixture was fully solubilized” value was 4.92 and the dissolution (Example 1a: 840 mg in 40 ml, pH 5.6 (1M HCl), stirred 10 minutes) was “remaining opaque and undissolved”. The dissolution (Example 1a: 840 mg in 40 ml, stirred at pH 4.25 for 1 hour, final pH 4.28) was “totally transparent and without precipitate”, the dissolution (Example 1a: 840 mg in 40 ml, unadjusted pH 7.7, stirring 10 minutes) was “remained undissolved” and the dissolution (Example 1b: 840 mg with 840 mg sucralose in 40 ml, pH 5.6 (1M HCl), stirred 10 minutes) was “remaining opaque and undissolved”. For the same molecule, the dissolution (Example 1b: 840 mg with 840 mg sucralose in 40 ml, unadjusted pH 7.7, stirring 10 minutes) was “remained undissolved” and the dissolution (Example 1c: 945 mg with 945 mg sucralose in 45 ml, unadjusted pH 7.7, stirring 10 minutes) was “remained undissolved”.
